Earlier results in patent US7109191B2, “Benzazepinone alpha vintegrin receptor antagonists” (Merck & Co., Inc., priority 2001, dated 2006).

Test system: postmenopausal osteoporotic women
Details: after a median of 22 months of treatment

For “hPTH(1–34): human parathyroid hormone 1–34 fragment (SVSEIQLMHNLGKHLNSMERVEWLRKKLQDVHNF; Parathyroid hormone; UniProt P01270 32-65, looked up, fragment)”, the “reduction in nonvertebral fractures” value is listed as 54% and the “reduction in spine fractures” value is listed as no less than 65%.
